In patent US4062948A, “Dihydromocimycin antibiotics” (Gist-Brocades N.V., priority 1970, dated 1977):
Values after ≈ are worked out from the molar mass of the structure shown.

Key:
Treponema hyodysenteriae = assay: early experiments against Treponema dysentery; type: in vivo; settings: swine
Method: In an early stage of investigation, it was presumed that mocimycin, having a similar anti-microbial spectrum to that of tylosin (Merck Index, 8th Ed. page 1089), might be effective against Treponema hyodysenteriae causing Treponema dysentery of Vibrio Doyle, one of the most common swine diseases. […] For that reason, no further investigations were carried out.

[1] = system: Pasteurella multocida A 723; assay: micro liquid serial dilution test (Table II); type: cell-based; settings: A723, 18 hours at 30° C or 37° C, read-out: Minimum inhibitory concentration
Method: (§1) The microbiological activity of the antibiotic preparation towards a number of micoorganisms has been determined by a micro liquid serial dilution test:
(§2) A stock solution of the test compounds at a concentration of 200 μg/ml in 0.05 molar phosphate buffer at a pH of 6.5 was prepared and serial 1:1 dilutions were made with a liquid medium inoculated with the test organism, using conventional glass spot-test plates. The plates were incubated 18 hours at 30° C or 37° C. The minimum inhibitory concentration (MIC) which is the smallest concentration of compound completely inhibiting the growth of the test organism is read and calculated in μg/ml.

[2] = system: Actinobacillus equuli T 3; assay: micro liquid serial dilution test (Table II); type: cell-based; settings: T3, 18 hours at 30° C or 37° C, read-out: Minimum inhibitory concentration
Method: as §1, §2

[3] = system: Torulopsis glabrata A 420; assay: micro liquid serial dilution test (Table II); type: cell-based; settings: Nakaseomyces glabratus, A420; 18 hours at 30° C or 37° C; read-out: Minimum inhibitory concentration
Method: as §1, §2

[4] = system: Streptococcus haemolyticus A 266; assay: micro liquid serial dilution test (Table II); type: cell-based; settings: A266, 18 hours at 30° C or 37° C, read-out: Minimum inhibitory concentration
Method: as §1, §2

[5] = system: Diplococcus pneumoniae A 188; assay: micro liquid serial dilution test (Table II); type: cell-based; settings: Streptococcus pneumoniae, A188; 18 hours at 30° C or 37° C; read-out: Minimum inhibitory concentration
Method: as §1, §2

Sarcina lutea ATCC 9341 = assay: micro liquid serial dilution test (Table II); type: cell-based; settings: Micrococcus luteus, ATCC9341; 18 hours at 30° C or 37° C; read-out: Minimum inhibitory concentration
Method: as §1, §2

[6] = system: Streptococcus disgalactiae A 730; assay: micro liquid serial dilution test (Table II); type: cell-based; settings: A730, 18 hours at 30° C or 37° C, read-out: Minimum inhibitory concentration
Method: as §1, §2

[7] = system: Bacillus cereus ATCC 9139; assay: micro liquid serial dilution test (Table II); type: cell-based; settings: ATCC9139, 18 hours at 30° C or 37° C, read-out: Minimum inhibitory concentration
Method: as §1, §2

[8] = system: Haemophilus influenzae A 773; assay: micro liquid serial dilution test (Table II); type: cell-based; settings: A773, 18 hours at 30° C or 37° C, read-out: Minimum inhibitory concentration
Method: as §1, §2

Salmonella dublin P 43 = assay: micro liquid serial dilution test (Table II); type: cell-based; settings: Salmonella enterica, P43; 18 hours at 30° C or 37° C; read-out: Minimum inhibitory concentration
Method: as §1, §2

[9] = system: Mycoplasma gallisepticum K 514; assay: micro liquid serial dilution test (Table II); type: cell-based
Method: as §1, §2

[10] = system: Streptococcus faecalis L 80; assay: micro liquid serial dilution test (Table II); type: cell-based; settings: Enterococcus faecalis, L80; 18 hours at 30° C or 37° C; read-out: Minimum inhibitory concentration
Method: as §1, §2

[11] = system: Mycoplasma synoviae A 2082; assay: micro liquid serial dilution test (Table II); type: cell-based; settings: Mycoplasmopsis synoviae, A2082; 18 hours at 30° C or 37° C; read-out: Minimum inhibitory concentration
Method: as §1, §2

[12] = system: Salmonella typhimurium R 127; assay: micro liquid serial dilution test (Table II); type: cell-based; settings: Salmonella enterica, 18 hours at 30° C or 37° C, read-out: Minimum inhibitory concentration
Method: as §1, §2

Micrococcus flavus A 54 = assay: micro liquid serial dilution test (Table II); type: cell-based; settings: A54, 18 hours at 30° C or 37° C, read-out: Minimum inhibitory concentration
Method: as §1, §2

[13] = system: Candida parapsilosis A 952; assay: micro liquid serial dilution test (Table II); type: cell-based; settings: Lodderomyces parapsilosis, A952; 18 hours at 30° C or 37° C; read-out: Minimum inhibitory concentration
Method: as §1, §2

Erwinia caretovora W 9 = assay: micro liquid serial dilution test (Table II); type: cell-based; settings: W9, 18 hours at 30° C or 37° C, read-out: Minimum inhibitory concentration
Method: as §1, §2

Proteus rettgeri A 821 = assay: micro liquid serial dilution test (Table II); type: cell-based; settings: Providencia rettgeri, A821; 18 hours at 30° C or 37° C; read-out: Minimum inhibitory concentration
Method: as §1, §2

Escherichia coli U 20 = assay: micro liquid serial dilution test (Table II); type: cell-based; settings: U20, 18 hours at 30° C or 37° C, read-out: Minimum inhibitory concentration
Method: as §1, §2

[14] = system: Mycoplasma hyorhinus A 2230; assay: micro liquid serial dilution test (Table II); type: cell-based; settings: A2230, 18 hours at 30° C or 37° C, read-out: Minimum inhibitory concentration
Method: as §1, §2

[15] = system: Clostridium welchii A 738; assay: microbe, parasite or virus in culture; type: cell-based; settings: A738, 18 h, read-out: Minimum inhibitory concentration
[16] = Stability of the solid antibiotic; type: physicochemical; settings: for stable (solid): 100% relative humidity
mice = assay: Acute toxicity in mice; type: in vivo
Text: The toxicity of the antibiotic has been studied in various animals.

[17] = system: organisms of the Mycoplasma genus (pleuro-pneumonia like organisms); assay: in vitro activity against Mycoplasma genus; type: cell-based

## CC=CC=CC1OC(O)(C(CC)C(=O)NCC=CC=C(C)C(OC)C(C)C2OC(C=CC=CC=C(C)C(=O)c3c(O)cc[nH]c3=O)C(O)C2O)C(O)C(O)C1(C)C (centres unmarked) [mocimycin]
Treponema hyodysenteriae
  activity against Treponema dysentery compared with tylosin: active against this disease, but not more so than tylosin
[1]
  MIC: 4 µg/mL (≈ 5.02 µM)
[2]
  MIC: 1.5 µg/mL (≈ 1.88 µM)
[3]
  MIC: > 100 µg/mL
[4]
  MIC: 2 µg/mL (≈ 2.51 µM)
[5]
  MIC: 1 µg/mL (≈ 1.25 µM)
Sarcina lutea ATCC 9341
  MIC: 25 µg/mL (≈ 31.4 µM)
[6]
  MIC: 0.6 µg/mL (≈ 0.753 µM)
[7]
  MIC: 0.3 µg/mL (≈ 0.376 µM)
[8]
  MIC: 2 µg/mL (≈ 2.51 µM)
Salmonella dublin P 43
  MIC: > 100 µg/mL
[9]; Mycoplasmoides gallisepticum, K514, 18 hours at 30° C or 37° C, read-out: Minimum inhibitory concentration
  MIC: 0.1 µg/mL (≈ 0.125 µM)
[9]; in vitro, summary of Table II
  activity against Mycoplasma gallisepticum: high activity
[10]
  MIC: > 200 µg/mL
[11]
  MIC: 1 µg/mL (≈ 1.25 µM)
[12]
  MIC: > 100 µg/mL
Micrococcus flavus A 54
  MIC: 4 µg/mL (≈ 5.02 µM)
[13]
  MIC: > 100 µg/mL
Erwinia caretovora W 9
  MIC: 6 µg/mL (≈ 7.53 µM)
Proteus rettgeri A 821
  MIC: > 100 µg/mL
Escherichia coli U 20
  MIC: > 100 µg/mL
[14]
  MIC: 3 µg/mL (≈ 3.76 µM)
[15]
  MIC: 10 µg/mL (≈ 12.5 µM)
[16]; 25° C and 37° C, low relative humidities
  no loss in activity of the solid: at least 5 months
[16]; 25° C
  stable (solid): 3 months
[16]; 37° C
  stable (solid): 2 months
mice; 1,000 mg/kg i.p., mice
  lethality: does not kill mice
mice; various animals
  acute toxicity: very low
[17]
  activity in vitro: considerable activity in vitro
